Assay results published in patent publication US20130059907A1, “WOGONIN-CONTAINING PHARMACEUTICAL COMPOSITION FOR INHIBITING CANCER STEM CELLS GROWTH AND APPLICATION THEREOF” (National Taiwan Normal University, priority 2011, published 2013).

Key:
A549 cells [1] = test: MTT assay (cell proliferation), A549; format: cell-based; conditions: FIG. 1B
Description: NSCLC cell lines A549, NCI-H460, NCI-H520 and normal lung cell line MRCS were obtained from Bioresource Collection and Research Center (BCRC, Taiwan). A549 cell line was cultured with F12K medium (21127, GIBCO, Carlsbad, U.S.A.). Both NCI-H460 and NCI-H520 cell lines were cultured with RPMI1640 medium (23400, GIBCO, Carlsbad, U.S.A.). MRCS cell line was cultured with MEM medium (41500, GIBCO, Carlsbad, U.S.A.). All media mentioned above contained 10% FBS (10437, GIBCO, Carlsbad, U.S.A.). All cultures were maintained in an incubator (Thermo forma 370, Waltham, U.S.A.) with 5% CO2 at 37° C.
Cells were seeded at 1×10^4 cells per well in a 24-well plate for 16 hours. After that, a sample such as the wogonin solutions with different concentrations and the extract of S. baicalensis (denoted as “SB”) was added into 24-well plate directly, and cultured at 37° C. for 24, 48, and 72 hours, respectively.
Thiazolyl blue tetrazolium bromide (MTT, m5655, Sigma, St. Louis, U.S.A.) solution was prepared in a concentration of 5.5 mg/ml with phosphate buffered saline (PBS) filtered by 0.22 μm membrane. The MTT solution (50 μl) was added to the wells of 24-well plates with A549, NCI-H460, NCI-H520, and MRCS cell lines cultured after 24, 48, and 72 hours. The plates were incubated at 37° C. for 2 hours and then moved out. The media of the wells were removed. […]

A549 cells [2] = test: Side population analysis (Hoechst33342, with or without reserpine); format: cell-based; conditions: A549, dose of IC50, 48 hours, FIGS. 5A and 5B
Description: A549 cells were seeded in the number of about 3×10^5 in 10 cm dish to give adequate number of cells for analysis. The cells were treated with the extract of S. baicalensis and the wogonin solution in the dose of IC50 for 48 hours. Then, the treated cells were harvested by typsinization and centrifugation. The harvested cells were re-suspended in the number of 1×10^6 cells/ml in culture medium containing 2% FBS, Hoechst33342 dye (5 μg/ml, Invitrogen, Carlsbad, U.S.A.) was added with or without reserpine (50 μM, Sigma, St. Louis, U.S.A.) as a blocking reagent. The cells were further incubated at 37° C. for 2 hours under frequently gentle vortex to ensure uniform staining, and then washed with PBS. PI staining (20 ng/ml) was used to determine the live/dead cells. In order to set up the fluorescence compensation, single staining and non-staining groups were prepared. The cell samples were filtered with nylon mesh (35 μm) to prevent cell aggregation. PI-positive dead cells were primary excluded to avoid false positive signals. Then, the Hoechst blue and red dot plotting was used to determine the side population. A gate of a side population was defined by the diminishing region of two samples groups, i.e. with or without reserpine. The percentages of the side population were further analyzed by Flowjo software (TreeStar, Ashland, U.S.A.).

- IC50 (A549 cells [1]; Homo sapiens, A549, 48 hours, read-out: half maximal inhibitory concentration (IC50)): ~85 µM
Compound: COc1c(O)cc(O)c2c(=O)cc(-c3ccccc3)oc12 [wogonin solution, wogonin hydrate]
- inhibition of A549 cell line (concentration dependence) (A549 cells [1]; A549, 40, 80, 120, and 160 μM, 48 hours): increased as the concentration of the wogonin solution increases
- side population (SP) (A549 cells [2]): significantly diminished
